What was measured:
[1] = molecular target: T1, HDM2 (Homo sapiens, UniProt Q00987); experiment: TdF assay (thermal melting with Sypro Orange); assay type: binding; settings: 6 uM HDM2, 10 mM HEPES pH 7.4, 150 mM NaCl, 1 mM DTT, 10 and 20 uM compound
[2] = molecular target: T1, HDM2; experiment: Fluorescent polarization assay (FAM-labeled p53 peptide ligand competition); assay type: binding; settings: 10 nM HDM2 protein, 1 nM FAM-labeled p53 peptide ligand, PBS buffer; for Ki: non-linear regression

T1 sequence (Q00987 whole entry): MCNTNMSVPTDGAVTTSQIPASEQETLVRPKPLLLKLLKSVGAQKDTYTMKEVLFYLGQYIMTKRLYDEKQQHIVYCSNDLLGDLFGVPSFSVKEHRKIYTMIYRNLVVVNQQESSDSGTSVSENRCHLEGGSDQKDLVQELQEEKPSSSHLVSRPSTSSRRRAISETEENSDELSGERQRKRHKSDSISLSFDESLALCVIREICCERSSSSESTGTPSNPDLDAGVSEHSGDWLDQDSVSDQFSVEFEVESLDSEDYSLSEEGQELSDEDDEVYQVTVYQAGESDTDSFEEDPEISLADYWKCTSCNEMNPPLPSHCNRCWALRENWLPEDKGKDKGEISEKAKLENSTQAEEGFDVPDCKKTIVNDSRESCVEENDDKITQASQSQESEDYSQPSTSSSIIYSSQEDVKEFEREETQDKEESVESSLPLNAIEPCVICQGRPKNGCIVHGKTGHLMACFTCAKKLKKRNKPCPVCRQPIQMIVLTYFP

| Kd [1] | IC50 [2] | Ki [2] | SMILES |
| --- | --- | --- | --- |
| < 2 µM | < 5 µM | < 2 µM | O=C(c1cnccc1C(F)(F)F)N1CCCC(Oc2ccc(C(F)(F)F)cc2)(C(=O)N2CCN(c3ccccn3)CC2)C1 (stereo not drawn) [Compound 1] |
| < 2 µM | < 5 µM | < 2 µM | COCCOc1ccccc1N1CCN(C(=O)[C@]2(Oc3ccc(C(F)(F)F)cc3)CCCN(C(=O)c3cnccc3C(F)(F)F)[C@@H]2C(O)C(C)O)CC1 (stereo partly drawn) [Compound 4] |
